Reference: US9464084B2, “P2X7 modulators” (Janssen Pharmaceutica NV, priority 2013, dated 2016)

molecular target: P2X7 (Homo sapiens (Human), UniProt Q99572); assay: P2X7 antagonism in human PBMCs (LPS + Bz-ATP induced IL-1β release, ELISA); format: cell-based; conditions: compound 1 μM, LPS 30 ng/ml, Bz-ATP 0.5 mM;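 note: PBMCs from donor human blood, with a further 1.5 h incubation of the cells in the assay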
Sequence (Q99572 whole entry): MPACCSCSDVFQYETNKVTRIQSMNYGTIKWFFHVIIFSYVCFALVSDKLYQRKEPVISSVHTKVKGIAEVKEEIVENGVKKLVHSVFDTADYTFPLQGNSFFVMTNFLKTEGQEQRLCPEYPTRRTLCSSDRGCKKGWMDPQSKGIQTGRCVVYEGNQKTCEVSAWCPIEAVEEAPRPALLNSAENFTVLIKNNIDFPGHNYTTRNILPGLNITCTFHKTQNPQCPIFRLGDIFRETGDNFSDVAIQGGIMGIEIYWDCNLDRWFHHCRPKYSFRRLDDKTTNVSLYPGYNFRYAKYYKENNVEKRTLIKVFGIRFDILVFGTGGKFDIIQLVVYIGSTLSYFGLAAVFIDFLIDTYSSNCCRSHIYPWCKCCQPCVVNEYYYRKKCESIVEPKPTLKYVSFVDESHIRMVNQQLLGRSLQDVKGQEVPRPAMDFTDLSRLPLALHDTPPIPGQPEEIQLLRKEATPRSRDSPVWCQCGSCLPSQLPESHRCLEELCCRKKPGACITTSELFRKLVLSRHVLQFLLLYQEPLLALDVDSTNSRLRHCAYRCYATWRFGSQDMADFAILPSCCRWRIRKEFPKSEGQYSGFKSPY

| PBMC 1 μM (% control) | SMILES |
| --- | --- |
| 98.9 % control | CC1(C)Cc2cccc(C(=O)N3CCc4c(ncn4-c4ccccc4)C3)c2O1 [Example 52, 5-[(2,2-Dimethyl-2,3-dihydro-1-benzofuran-7-yl)carbonyl]-1-phenyl-4,5,6,7-tetrahydro-1H-imidazo[4,5-c]pyridine] |
| 4.3 % control | CC1c2nnn(-c3cnccn3)c2CCN1C(=O)c1cccc(C(F)(F)F)c1Cl (centres unmarked) [Example 73, 5-{[2-Chloro-3-(trifluoromethyl)phenyl]carbonyl}-4-methyl-1-pyrazin-2-yl-4,5,6,7-tetrahydro-1H-[1,2,3]triazolo[4,5-c]pyridine] |

same assay, conditions: compound 10 μM, LPS 30 ng/ml, Bz-ATP 0.5 mM

| SMILES | PBMC 10 μM (% control) |
| --- | --- |
| C[C@@H]1c2nnn(-c3cc(F)ccn3)c2CCN1C(=O)c1cccc(C(F)(F)F)c1Cl (single isomer, unassigned) [Example 148, (R*)-(2-Chloro-3-(trifluoromethyl)phenyl)(1-(4-fluoropyridin-2-yl)-4-methyl-6,7-dihydro-1H-[1,2,3]triazolo[4,5-c]pyridin-5(4H)-yl)methanone] | −9.6 % control |
| C[C@@H]1c2nnn(-c3cc[nH]n3)c2CCN1C(=O)c1cccc(C(F)(F)F)c1Cl (single isomer, unassigned) [Example 133, (R*)-(2-Chloro-3-(trifluoromethyl)phenyl)(4-methyl-1-(1H-pyrazol-5-yl)-6,7-dihydro-1H-[1,2,3]triazolo[4,5-c]pyridin-5(4H)-yl)methanone] | −0.2 % control |
| CC1Cc2c(nnn2-c2cc[nH]n2)CN1C(=O)c1cccc(C(F)(F)F)c1Cl (centres unmarked) [Example 210, (2-chloro-3-(trifluoromethyl)phenyl)(6-methyl-1-(1H-pyrazol-3-yl)-6,7-dihydro-1H-[1,2,3]triazolo[4,5-c]pyridin-5(4H)-yl)methanone] | 0.8 % control |
| C[C@H]1Cc2c(nnn2-c2ccccn2)CN1C(=O)c1cccc(C(F)(F)F)c1Cl (single isomer, unassigned) [Example 118, 5-{[2-Chloro-3-(trifluoromethyl)phenyl]carbonyl}-(S*)-6-methyl-1-pyridin-2-yl-4,5,6,7-tetrahydro-1H-[1,2,3]triazolo[4,5-c]pyridine] | 12.6 % control |
| C[C@H]1c2ncn(-c3ccccn3)c2CCN1C(=O)c1cccc(C(F)(F)F)c1Cl (single isomer, unassigned) [Example 45, (4 S*)-5-{[2-Chloro-3-(trifluoromethyl)phenyl]carbonyl}-4-methyl-1-pyridin-2-yl-4,5,6,7-tetrahydro-1H-imidazo[4,5-c]pyridine] | 29.4 % control |
| O=C(c1cccc(C(F)(F)F)c1Cl)N1CCc2c(nnn2-c2ncccn2)C1 [Example 65, 5-{[2-Chloro-3-(trifluoromethyl)phenyl]carbonyl}-1-pyrimidin-2-yl-4,5,6,7-tetrahydro-1H-[1,2,3]triazolo[4,5-c]pyridine] | 5.8 % control |
| Cc1ccnc(-n2nnc3c2CCN(C(=O)c2cccc(C(F)(F)F)c2Cl)[C@H]3C)c1 (single isomer, unassigned) [Example 186, (S*)-(2-chloro-3-(trifluoromethyl)phenyl)(4-methyl-1-(4-methylpyridin-2-yl)-6,7-dihydro-1H-[1,2,3]triazolo[4,5-c]pyridin-5(4H)-yl)methanone] | −0.5 % control |
| C[C@H]1c2ncn(-c3ccc(F)cn3)c2CCN1C(=O)c1cccc(C(F)(F)F)c1Cl (stereo in doubt) [Example 41] | 40.5 % control |
| C[C@H]1c2nnn(-c3cc(F)ccn3)c2CCN1C(=O)c1cccc(C(F)(F)F)c1Cl (single isomer, unassigned) [Example 149, (S*)-(2-Chloro-3-(trifluoromethyl)phenyl)(1-(4-fluoropyridin-2-yl)-4-methyl-6,7-dihydro-1H-[1,2,3]triazolo[4,5-c]pyridin-5(4H)-yl)methanone] | 3.5 % control |

Other lines, results leading:

| PBMC 10 μM (% control) | SMILES |
| --- | --- |
| −5.1 % control | Cc1ccnc(-n2nnc3c2CCN(C(=O)c2cccc(Cl)c2Cl)C3C)c1 (centres unmarked) [Example 237, (2,3-dichlorophenyl)(4-methyl-1-(4-methylpyridin-2-yl)-6,7-dihydro-1H-[1,2,3]triazolo[4,5-c]pyridin-5(4H)-yl)methanone] |
| −8.9 % control | CC1Cc2c(nnn2-c2ccccc2)C(C)N1C(=O)c1cccc(C(F)(F)F)c1Cl (centres unmarked) [Example 240, (2-Chloro-3-(trifluoromethyl)phenyl)(4,6-dimethyl-1-phenyl-6,7-dihydro-1H-[1,2,3]triazolo[4,5-c]pyridin-5(4H)-yl)methanone] |
| 98.5 % control | C[C@H]1c2nnn(-c3ncccn3)c2CCN1C(=O)c1cccc(C(F)(F)F)c1F (single isomer, unassigned) [Example 270, (S*)-(2-fluoro-3-(trifluoromethyl)phenyl)(4-methyl-1-(pyrimidin-2-yl)-6,7-dihydro-1H-[1,2,3]triazolo[4,5-c]pyridin-5(4H)-yl)methanone] |
| 12.2 % control | C[C@@H]1c2nnn(-c3ccn[nH]3)c2C[C@H](C)N1C(=O)c1cccc(C(F)(F)F)c1Cl [Example 310, (2-chloro-3-(trifluoromethyl)phenyl)((4R,6S)-4,6-dimethyl-1-(1H-pyrazol-5-yl)-6,7-dihydro-1H-[1,2,3]triazolo[4,5-c]pyridin-5(4H)-yl)methanone] |
| 5.8 % control | C[C@@H]1Cc2c(nnn2-c2ccc(F)cc2)[C@H](C)N1C(=O)c1cccc(C(F)(F)F)c1Cl [Example 286, (2-chloro-3-(trifluoromethyl)phenyl)((4S,6R)-1-(4-fluorophenyl)-4,6-dimethyl-6,7-dihydro-1H-[1,2,3]triazolo[4,5-c]pyridin-5(4H)-yl)methanone] |
| 1.0 % control | CC1Cc2c(nnn2-c2ccc(F)cc2)C(C)N1C(=O)c1cccc(C(F)(F)F)c1Cl (centres unmarked) [Example 243, (2-Chloro-3-(trifluoromethyl)phenyl)(1-(4-fluorophenyl)-4,6-dimethyl-6,7-dihydro-1H-[1,2,3]triazolo[4,5-c]pyridin-5(4H)-yl)methanone] |
| −6.8 % control | C[C@H]1Cc2c(nnn2-c2ccn[nH]2)[C@H](C)N1C(=O)c1cccc(C(F)(F)F)c1Cl [Example 319, (2-chloro-3-(trifluoromethyl)phenyl)((4S,6S)-4,6-dimethyl-1-(1H-pyrazol-5-yl)-6,7-dihydro-1H-[1,2,3]triazolo[4,5-c]pyridin-5(4H)-yl)methanone] |
| 74.3 % control | COCCn1ccc(-n2nnc3c2CCN(C(=O)c2cccc(C(F)(F)F)c2Cl)[C@@H]3C)n1 (single isomer, unassigned) [Example 248, (R*)-(2-Chloro-3-(trifluoromethyl)phenyl)(1-(1-(2-methoxyethyl)-1H-pyrazol-3-yl)-4-methyl-6,7-dihydro-1H-[1,2,3]triazolo[4,5-c]pyridin-5(4H)-yl)methanone] |
| 4.4 % control | C[C@H]1Cc2c(nnn2-c2ccccc2)CN1C(=O)c1cccc(C(F)(F)F)c1Cl [Example 288, (S)-(2-chloro-3-(trifluoromethyl)phenyl)(6-methyl-1-phenyl-6,7-dihydro-1H-[1,2,3]triazolo[4,5-c]pyridin-5(4H)-yl)methanone] |
